These results are taken from patent publication US9050344B2, “Therapeutic compounds” (Gilead Sciences, Inc., priority 2013, dated 2015).

The subject of data set [1] is HIV-IIIb. As to the kind of experiment: Test A: Antiviral Assay in MT4 Cells. Conditions: Human immunodeficiency virus 1, IIIB, MT4, 120 h, read-out: % inhibition at 3 μM. Format: cell-based, HIV-1. As for the experimental part:
Test A: Antiviral Assay in MT4 Cells
For the antiviral assay, 40 μL of 1× test concentration of 3-fold serially diluted compound in culture medium with 10% FBS was added to each well of a 384-well plate (10 concentrations) in quadruplicate. MT-4 cells were next mixed with HIV-IIIb at an m.o.i of 0.003 for 1 hour, after which time 35 μL of virus/cell mixture (2000 cells) was immediately added to each well containing 40 μL of diluted compound. The plates were then incubated at 37° C. for 5 days. After 5 days of incubation, 25 μl of 2× concentrated CellTiter-Glo™ Reagent (catalog #G7571, Promega Biosciences, Inc., Madison, Wis.) was added to each well containing MT-4 cells. Cell lysis was carried out by incubating at room temperature for 10 min and then chemiluminescence was read.

Data set [2] in a line: Test B: Cytotoxicity Assay (protocol of Test A, uninfected cells). Format: cell-based. To be noted: human, uninfected MT-4 cells, CellTiter-Glo. As for the experimental part: Test B: Cytotoxicity Assay Compound cytotoxicity and the corresponding CC50 values was determined using the same protocol as described in the antiviral assay (Test A) except that uninfected cells were used.
Background: Cellular ATP, detected with luciferase, serves as a proxy for viable cell number.

Take `Cn1nc(NS(C)(=O)=O)c2cccc(-c3ccc(N4CC(C)(O)C4)nc3[C@H](Cc3cc(F)cc(F)c3)NC(=O)Cn3nc(C(F)F)c4c3C(F)(F)[C@@H]3C[C@H]43)c21` [Compound 42K, 2-((3bS,4aR)-3-(difluoromethyl)-5,5-difluoro-3b,4,4a,5-tetrahydro-1H-cyclopropa[3,4]cyclopenta[1,2-c]pyrazol-1-yl)-N—((S)-2-(3,5-difluorophenyl)-1-(6-(3-hydroxy-3-methylazetidin-1-yl)-3-(1-methyl-3-(methylsulfonamido)-1H-indazol-7-yl)pyridin-2-yl)ethyl)acetamide]: the inhibition at 3 µM in data set [1] came to 92%. Moreover, the cytotoxic concentration (CC50) at 5 days in data set [2] was found to be 18.9 µM.

Consider `Cc1c(-c2cc(NS(C)(=O)=O)cnc2[C@H](Cc2cc(F)cc(F)c2)NC(=O)Cn2nc(C(F)(F)F)c3c2C(F)(F)[C@@H]2C[C@H]32)ccc2n[nH]c(=O)n12` [Compound 41E, 2-((3bS,4aR)-5,5-difluoro-3-(trifluoromethyl)-3b,4,4a,5-tetrahydro-1H-cyclopropa[3,4]cyclopenta[1,2-c]pyrazol-1-yl)-N—((S)-2-(3,5-difluorophenyl)-1-(3-(5-methyl-3-oxo-2,3-dihydro-[1,2,4]triazolo[4,3-a]pyridin-6-yl)-5-(methylsulfonamido)pyridin-2-yl)ethyl)acetamide], for which the inhibition at 3 µM in data set [1] is 91%. In addition, the 50% cytotoxic concentration (CC50) at 5 days in data set [2] was more than 50 µM.

As to `Cn1nc(NS(C)(=O)=O)c2cccc(-c3cnc(N4CC5(COC5)C4)nc3[C@H](Cc3cc(F)cc(F)c3)NC(=O)Cn3nc(C(F)(F)F)c4c3C(F)(F)[C@@H]3C[C@H]43)c21` [Compound 37, 2-((3bS,4aR)-5,5-difluoro-3-(trifluoromethyl)-3b,4,4a,5-tetrahydro-1H-cyclopropa[3,4]cyclopenta[1,2-c]pyrazol-1-yl)-N—((S)-2-(3,5-difluorophenyl)-1-(5-(1-methyl-3-(methylsulfonamido)-1H-indazol-7-yl)-2-(2-oxa-6-azaspiro[3.3]heptan-6-yl)pyrimidin-4-yl)ethyl)acetamide], the inhibition at 3 µM in data set [1] is 95%. In addition, the half-maximal cytotoxic concentration (CC50) at 5 days in data set [2] came out at 34 µM.

As for `CNc1cnc([C@H](Cc2cc(F)cc(F)c2)NC(=O)Cn2nc(C(F)F)c3c2C(F)(F)[C@@H]2C[C@H]32)c(-c2ccc(Cl)c3c(NS(C)(=O)=O)nn(C)c23)c1` [Compound 51, N—((S)-1-(3-(4-chloro-1-methyl-3-(methylsulfonamido)-1H-indazol-7-yl)-5-(methylamino)pyridin-2-yl)-2-(3,5-difluorophenyl)ethyl)-2-((3bS,4aR)-3-(difluoromethyl)-5,5-difluoro-3b,4,4a,5-tetrahydro-1H-cyclopropa[3,4]cyclopenta[1,2-c]pyrazol-1-yl)acetamide], the inhibition at 3 µM in data set [1] stood at 79%. The molecule also came in with a 50% cytotoxic concentration (CC50) at 5 days in data set [2] of 16.6 µM.

Consider `Cn1nc(NS(C)(=O)=O)c2cccc(-c3cc(N)c(C#N)nc3[C@H](Cc3cc(F)cc(F)c3)NC(=O)Cn3nc(C(F)(F)F)c4c3C(F)(F)[C@@H]3C[C@H]43)c21` [Compound 46F, N—((S)-1-(5-amino-6-cyano-3-(1-methyl-3-(methylsulfonamido)-1H-indazol-7-yl)pyridin-2-yl)-2-(3,5-difluorophenyl)ethyl)-2-((3bS,4aR)-5,5-difluoro-3-(trifluoromethyl)-3b,4,4a,5-tetrahydro-1H-cyclopropa[3,4]cyclopenta[1,2-c]pyrazol-1-yl)acetamide], for which, in data set [1], the inhibition at 3 µM worked out at 109%. In data set [2], the midpoint of cytotoxicity, the CC50 at 5 days, lay at 12.5 µM.

For `Cn1nc(NS(C)(=O)=O)c2c(Cl)ccc(-c3cc(N)cnc3[C@H](Cc3cc(F)cc(F)c3)NC(=O)Cn3nc(C(F)F)c4c3C(F)(F)[C@@H]3C[C@H]43)c21` [Compound 49C, N—((S)-1-(5-amino-3-(4-chloro-1-methyl-3-(methylsulfonamido)-1H-indazol-7-yl)pyridin-2-yl)-2-(3,5-difluorophenyl)ethyl)-2-((3bS,4aR)-3-(difluoromethyl)-5,5-difluoro-3b,4,4a,5-tetrahydro-1H-cyclopropa[3,4]cyclopenta[1,2-c]pyrazol-1-yl)acetamide], the inhibition at 3 µM in data set [1] came out at 93%. Besides, in data set [2], the CC50 at 5 days was 28.1 µM.

Turning to `Cn1nc(NS(C)(=O)=O)c2c(Cl)ccc(-c3cc(N)c(Cl)nc3[C@H](Cc3cc(F)cc(F)c3)NC(=O)Cn3nc(C(F)(F)F)c4c3C(F)(F)[C@@H]3C[C@H]43)c21` [Compound 54, N—((S)-1-(5-amino-6-chloro-3-(4-chloro-1-methyl-3-(methylsulfonamido)-1H-indazol-7-yl)pyridin-2-yl)-2-(3,5-difluorophenyl)ethyl)-2-((3bS,4aR)-5,5-difluoro-3-(trifluoromethyl)-3b,4,4a,5-tetrahydro-1H-cyclopropa[3,4]cyclopenta[1,2-c]pyrazol-1-yl)acetamide], in data set [1], the inhibition at 3 µM turned out to be 92%. This molecule also registered a CC50 at 5 days in data set [2] of 12.1 µM.

`Cn1nc(NS(C)(=O)=O)c2c(Cl)ccc(-c3ccc(NCCO)nc3[C@H](Cc3cc(F)cc(F)c3)NC(=O)Cn3nc(C(F)(F)F)c4c3C(F)(F)[C@@H]3C[C@H]43)c21` [Compound 56]: the inhibition at 3 µM in data set [1] worked out at 95%. In data set [2], this molecule registered a CC50 at 5 days of 24.3 µM.

`Cn1nc(NS(C)(=O)=O)c2c(Cl)ccc(-c3nc(N)cnc3C(Cc3cc(F)cc(F)c3)NC(=O)Cn3nc(C(F)F)c4c3C(F)(F)[C@@H]3C[C@H]43)c21` (stereo partly drawn) [Compound 59D, N-(1-(5-amino-3-(4-chloro-1-methyl-3-(methylsulfonamido)-1H-indazol-7-yl)pyrazin-2-yl)-2-(3,5-difluorophenyl)ethyl)-2-((3bS,4aR)-3-(difluoromethyl)-5,5-difluoro-3b,4,4a,5-tetrahydro-1H-cyclopropa[3,4]cyclopenta[1,2-c]pyrazol-1-yl)acetamide]: in data set [1], the inhibition at 3 µM was 85%. Moreover, the CC50 at 5 days in data set [2] was more than 46.8 µM.

Take `Cn1nc(NS(C)(=O)=O)c2c(Cl)ccc(-c3cc(N)cnc3[C@H](Cc3cc(F)cc(F)c3)NC(=O)Cn3nc(C(F)(F)F)c4c3C(F)(F)[C@@H]3C[C@H]43)c21` [Compound 52, N—((S)-1-(5-amino-3-(4-chloro-1-methyl-3-(methylsulfonamido)-1H-indazol-7-yl)pyridin-2-yl)-2-(3,5-difluorophenyl)ethyl)-2-((3bS,4aR)-5,5-difluoro-3-(trifluoromethyl)-3b,4,4a,5-tetrahydro-1H-cyclopropa[3,4]cyclopenta[1,2-c]pyrazol-1-yl)acetamide]: the inhibition at 3 µM in data set [1] was determined as 104%. In addition, in data set [2], the midpoint of cytotoxicity, the CC50 at 5 days, lay at 21.5 µM.

With `Cc1nc([C@H](Cc2cc(F)cc(F)c2)NC(=O)Cn2nc(C(F)(F)F)c3c2C(F)(F)[C@@H]2C[C@H]32)c(-c2cccc3c(NS(C)(=O)=O)nn(C)c23)cc1N` [Compound 45, N—((S)-1-(5-amino-6-methyl-3-(1-methyl-3-(methylsulfonamido)-1H-indazol-7-yl)pyridin-2-yl)-2-(3,5-difluorophenyl)ethyl)-2-((3bS,4aR)-5,5-difluoro-3-(trifluoromethyl)-3b,4,4a,5-tetrahydro-1H-cyclopropa[3,4]cyclopenta[1,2-c]pyrazol-1-yl)acetamide], in data set [1], the inhibition at 3 µM turned out to be 110%. The same molecule registered a CC50 at 5 days in data set [2] of 21.5 µM.

In general, inhibition refers to the drop in the measured response relative to a control, in per cent. Broadly, the CC50 is the concentration that lowers cell viability or growth by half.
